# Measurements: US5767141A, “Substituted propane derivatives, a process for their preparation and the use of the compounds for treating diseases” (Hoechst Aktiengesellschaft, priority 1994, dated 1998)
# How the values were obtained:
# [1] = biological target: T1, glucose-6-phosphatase system (Rattus norvegicus, UniProt F7EWB7); assay: inhibition of the glucose-6-phosphatase system, enzyme assay in liver microsomes (phosphate liberated from glucose 6-phosphate); type: biochemical, male Wistar rats
# T1 construct: To prepare the microsome fraction containing the glucose-6-phosphatase, fresh liver organs from male Wistar rats were used; from tissue; host or cells: liver microsome fraction of male Wistar rats
# T1 sequence (F7EWB7 1-429): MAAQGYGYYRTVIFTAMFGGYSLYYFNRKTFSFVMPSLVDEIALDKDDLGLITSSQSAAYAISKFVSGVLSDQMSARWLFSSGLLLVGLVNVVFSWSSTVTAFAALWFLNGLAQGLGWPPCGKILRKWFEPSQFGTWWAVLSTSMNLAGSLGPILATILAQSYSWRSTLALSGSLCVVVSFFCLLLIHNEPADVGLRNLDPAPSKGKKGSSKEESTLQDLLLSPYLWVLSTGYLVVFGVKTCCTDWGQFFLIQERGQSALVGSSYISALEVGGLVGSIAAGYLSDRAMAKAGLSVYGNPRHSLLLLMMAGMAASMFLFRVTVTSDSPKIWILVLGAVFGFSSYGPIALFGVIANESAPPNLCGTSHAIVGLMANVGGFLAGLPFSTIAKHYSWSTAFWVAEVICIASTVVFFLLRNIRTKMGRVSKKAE
# Experimental: The effect of the compounds according to the invention on the glucose-6-phosphatase system was investigated in an enzyme assay in liver microsomes.
# To prepare the microsome fraction containing the glucose-6-phosphatase, fresh liver organs from male Wistar rats were used and were processed as described in the literature [Canfield, W. K. and Arion, W. J., J. Biol. Chem. 263, 7458-7460, (1988)]. This microsome fraction can be stored at -70° C. for at least 2 months without significant loss of activity.
# The glucose-6-phosphatase activity was detected as indicated in the literature (Arion, W. J. in Methods Enzymol. 174, Academic Press 1989, pages 58-67) by determination of the phosphate liberated from glucose 6-phosphate. 0.1 ml of assay mixture contained glucose 6-phosphate (1 mmol/l), the test substance, 0.1 mg of microsome fraction and 100 mmol/l HEPES buffer (4-(2-hydroxyethyl)piperazine-1-ethanesulfonic acid), pH 7.0. The reaction was started by adding the enzyme. After 20 minutes at room temperature, the reaction was stopped by adding 0.2 ml of phosphate reagent. The sample was incubated at 37° C. for 30 min, and the absorption (A) of the blue color was subsequently measured at 570 nm. The inhibitory activity of the test substance emerged from comparison with a control reaction which contained no test substance according to the formula [formula] […]
# glucose-6-phosphatase = conditions: qualitative, literature; cited from earlier work
"IC50 ([1]; rat liver microsome fraction, glucose 6-phosphate 1 mmol/l, pH 7.0, 20 minutes at room temperature, read-out: IC50 (concentration for 50% inhibition of enzyme activity))",Structure (SMILES),inhibition of the glucose-6-phosphatase system (in words) ([1]; qualitative statement),inhibition of glucose-6-phosphatase (in words) (glucose-6-phosphatase)
4 µM,"CC(C)(COC(=O)/C=C(/c1ccccc1)n1cnc2ccccc21)C(OCCCc1ccc(Cl)cc1)C(=O)O (racemic) [Example 1, (±)-4-(3Z-(1-Benzimidazolyl)-3-phenylpropenoyloxy)-2-(4-chlorophenylpropyloxy)-3,3-dimethylbutanoic acid]",inhibitors of the glucose-6-phosphatase system,
,"S=C=Nc1ccccc1C=Cc1ccccc1N=C=S [2,2'-diisothiocyanatostilbene]",,non-specific inhibitors of glucose-6-phosphatase
,CC(=O)Oc1ccccc1C=Cc1ccccc1N=C=S [2-iso-thiocyanato-2'-acetoxystilbene],,non-specific inhibitors of glucose-6-phosphatase
,"O=C(O)c1cc(SSc2ccc([N+](=O)[O-])c(C(=O)O)c2)ccc1[N+](=O)[O-] [5,5'-dithiobis-2-nitrobenzoic acid]",,non-specific inhibitors of glucose-6-phosphatase
,O=C(CCc1ccc(O)cc1)c1c(O)cc(O)cc1O[C@@H]1O[C@H](CO)[C@@H](O)[C@H](O)[C@H]1O [phlorrhizin],,non-specific inhibitors of glucose-6-phosphatase
